Measurements reported in patent publication US7030130B2, “Benzofuran derivatives and their use as antibacterial agents” (Arpida AG, priority 2000, dated 2006).
Converted amounts (≈) assume the structure as drawn.

Columns and labels:
Assay in all cases: Antimicrobial susceptibility testing (NCCLS M7-A5), MIC
Type in all cases: cell-based
[1] = test system: Bacillus subtilis ATCC 6051; details: ATCC6051, in vitro, read-out: Minimum Inhibitory Concentration (MIC)
Description: (§1) Antimicrobial susceptibility testing was performed in accordance with the National Committee for Clinical Laboratory Standards (NCCLS) procedure [M7-A5, 2001]. […] Methods for Dilution Antimicrobial Susceptibility Tests for Bacteria That Grow Aerobically; Approved Standard—Fifth Edition American National Standard

[2] = test system: Enterococcus faecalis ATCC 29212; details: ATCC29212, in vitro, read-out: Minimum Inhibitory Concentration (MIC)
Description: as §1

[3] = test system: Escherichia coil ATCC 25922; details: ATCC25922, in vitro, read-out: Minimum Inhibitory Concentration (MIC)
Description: as §1

[4] = test system: Staphylococcus aureus ATCC 25923; details: ATCC25923, in vitro, read-out: Minimum Inhibitory Concentration (MIC)
Description: as §1

[5] = test system: Staphylococcus epidermidis ATCC 12228; details: ATCC12228, in vitro, read-out: Minimum Inhibitory Concentration (MIC)
Description: as §1

[6] = test system: Streptococcus pneumoniae ATCC 49619; details: ATCC49619, in vitro, read-out: Minimum Inhibitory Concentration (MIC)
Description: as §1

MIC [1] [µg/mL] | MIC [2] [µg/mL] | MIC [3] [µg/mL] | MIC [4] [µg/mL] | MIC [5] [µg/mL] | MIC [6] [µg/mL] | SMILES
0.062 (≈ 0.175 µM) | 0.5 (≈ 1.41 µM) | 4 (≈ 11.3 µM) | 0.062 (≈ 0.175 µM) | 0.062 (≈ 0.175 µM) | 0.125 (≈ 0.353 µM) | COc1cc(Cc2cnc(N)nc2N)c2cc(CC3CC3)oc2c1OC [Example 20, 5-(2-Cyclopropylmethyl-6,7-dimethoxy-benzofuran-4-ylmethyl)-pyrimidine-2,4-diamine]
0.062 (≈ 0.159 µM) | 0.125 (≈ 0.32 µM) | 2 (≈ 5.12 µM) | 0.062 (≈ 0.159 µM) | 0.062 (≈ 0.159 µM) | 0.5 (≈ 1.28 µM) | COc1cc(Cc2cnc(N)nc2N)c2cc(Cc3ccccc3)oc2c1OC [Example 21, 5-(2-Benzyl-6,7-dimethoxy-benzofuran-4-ylmethyl)-pyrimidine-2,4-diamine]
0.25 (≈ 0.612 µM) | 1 (≈ 2.45 µM) | 2 (≈ 4.9 µM) | 0.25 (≈ 0.612 µM) | 0.015 (≈ 0.0367 µM) | 0.5 (≈ 1.22 µM) | COc1cc(Cc2cnc(N)nc2N)c2cc(Cc3ccc(F)cc3)oc2c1OC [Example 72, 5-[2-(4-fluoro-benzyl)-6,7-dimethoxy-benzofuran-4-ylmethyl]-pyrimidine-2,4-diamine]
0.5 (≈ 1.72 µM) | 0.5 (≈ 1.72 µM) | 0.25 (≈ 0.861 µM) | 2 (≈ 6.89 µM) | 0.062 (≈ 0.214 µM) | 2 (≈ 6.89 µM) | COc1cc(Cc2cnc(N)nc2N)cc(OC)c1OC [Trimethoprim, 2,4-diamino-5-(3,4,5-trimethoxybenzyl)pyrimidine, reference compound]
